Like-named read-outs stand apart in the source and are kept apart here.
Assays:
[1] = 227-239° F.; for % O2 Removal / Final O2: initial O2 40 ppb; for Oxygen scavenging activity relative to hydrazine: Table II
Description: A second more extensive group of potential oxygen scavengers were compared, again using a small laboratory boiler and oxygen saturated feed water containing sodium hydroxide. […] The hydrazine salts among this group are no less toxic than hydrazine and therefore were eliminated from further study. […] In addition, the carbohydrazide was preferred because it is a solid at room temperature and could therefore be used in dry formulations.
INITIAL SCREENING AT 227-239° F.

[2] = Initial oxygen scavenger screening in laboratory boiler at 200-220° F. (Table I)
Description: A small laboratory boiler was used to screen a number of potential oxygen scavengers. Oxygen saturated feed water which contained sodium hydroxide was used as the feed. The residence time for the treatment chemical was approximately 11 minutes. The boiler water temperature was maintained at between 200°-220° F. In these tests, 2% hydroquinone was used as the catalyst.
INITIAL SCREENING AT 200-220° F.

[3] = Carbohydrazide low temperature hydrolysis (Table V); format: physicochemical; conditions: for ppm Hydrazine: 100 ppm hydrazine control, pH 10.25
Description: Low temperature hydrolysis studies of carbohydrazide were carried out using reagent grade carbohydrazide containing approximately 2.7±0.1% hydrazine as an impurity. A 1,000 ppm carbohydrazide solution and a 100 ppm hydrazine solution were prepared with deaerated, deionized water. Half of the carbohydrazide solution was adjusted to pH 10.2 with sodium hydroxide and the other half was left at its original pH of 6.9. The solutions were poured into Nessler tubes to overflowing and sealed with stoppers fitted with hypodermic needles to allow pressure release with minimum air contact. Four samples of both of the carbohydrazide solutions and two samples of the hydrazine control were stored at varying temperatures for varying periods of time, all as reported in Table V below.

[4] = Carbohydrazide vs. hydrazine in oxygen removal, once-through apparatus (Table III); conditions: initial O2 7.4 ppm, 227-239° F., pH about 10.5
Description: A once-through experimental apparatus for simulating boiler water transport was utilized in this example. Water temperature in this example was maintained at about 227°-239° F. and pH at about 10.5.

[5] = Metal passivation in experimental firerod boiler (Table IV); conditions: 600 p.s.i., 48 hour test
Text: Metal passivation studies were undertaken using an experimental firerod boiler under the following test conditions:
10 boiler water concentrations
40 ppm M alkalinity (as CaCO3)
A blank containing no oxygen scavenger was followed by test runs with hydrazine, carbohydrazide, and sodium sulfite.
*Tubes ranked by appearance of metal surface.

Solubility in water = format: physicochemical

Compound	% O2 Removal [1]	Final O2 [1]	Oxygen scavenging activity relative to hydrazine [1]	other results
O=CNNC=O [Diformohydrazide]	0%	40 ppb	–	–
COC(=O)NNC(=O)OC [Dimethyldihydrazodicarboxylate]	50%	20 ppb	–	–
O=C(O)NNC(=O)O [Disodiumdihydrazodicarboxylate]	75%	10 ppb	activity comparable to hydrazine	–
NNC=O [Formohydrazide]	0%	40 ppb	–	–
NN.O=S(=O)(O)O [Hydrazine sulfate, Hydrazinium sulfate, reference compound]	87.5%	5 ppb	activity comparable to hydrazine	Final O2 ([2]; dosage 500 ppb, pH 10.5, initial O2 40 ppb, 2% hydroquinone catalyst): 10 ppb
NN [Hydrazine, hydrazine, reference compound]	87.5%	5 ppb	–	ppm Hydrazine ([3]; 120° F., 6 days): 86.6 ppm; ppm Hydrazine ([3]; 180° F., 6 days): 87.6 ppm; ppm Hydrazine ([3]; Room Temp. (77° F.), 6 days): 89.8 ppm; ppm Hydrazine ([3]; time 0): 97.4 ppm; Loss of initial hydrazine concentration ([3]; hydrazine control, after 6 days): approximately 10%; % O2 Removal ([4]; ppm scavenger/ppm O2 0.1/1): 15.4%; Final O2 ([4]; ppm scavenger/ppm O2 0.1/1): 6.26 ppm; % O2 Removal ([4]; ppm scavenger/ppm O2 0.9/1): 70.5%; Final O2 ([4]; ppm scavenger/ppm O2 0.9/1): 2.18 ppm; % O2 Removal ([4]; ppm scavenger/ppm O2 10.0/1): 99.2%; Final O2 ([4]; ppm scavenger/ppm O2 10.0/1): 0.06 ppm; Tube Rank (by appearance of metal surface) ([5]; dosage 2 ppm): 3
NN.NN.O=S(O)O [Hydrazinium sulfite, reference compound]	–	5 ppb	activity comparable to hydrazine	–
O=S([O-])[O-].[Na+].[Na+] [Na2 SO3, sodium sulfite, reference compound]	–	–	–	Final O2 ([2]; dosage 400 ppb, pH 9.65, initial O2 40 ppb): .005 ppb; Tube Rank (by appearance of metal surface) ([5]; dosage 20-40 ppm residual): 2
NNC(=O)C(=O)NN [Oxalic dihydrazide]	–	–	–	Solubility in water (Table II) (Solubility in water): Insoluble In Water
Di (methylformal)diazine	0%	40 ppb	–	–
